Molecules are shown by their SMILES. pEC50: −log10 of the molar value.

The results in this text go back to patent publication US11597708B2, “Inhibitors of heat shock factors and uses thereof” (HSF Pharmaceuticals SA, priority 2016, dated 2023).

One assay concerns HeLa cells. Briefly: Annexin V/7 aminoactinomycin D double staining assay. Format: cell-based, human. The conditions noted are these: 25 μM for up to 24 hours. How it is done:
FIG. 6. (A) HeLa cell cultures were mock-exposed (−) or exposed to the indicated concentrations of compound 115 for 24 (left panel) or 96 (right panel) hours. Cell viability of total cultures, floating cells and attached cells was assayed using an Alamar Blue assay. (B) HeLa cell cultures were mock-exposed (−) or exposed to the indicated concentrations of compound 115 for 15-96 hours. Trypan Blue dye exclusion was employed to determine numbers of live cells (left panel) and relative levels of necrotic cells (right panel). (C) HeLa cell cultures were mock-exposed (−) or exposed to the indicated concentrations of compound 115 for 6 and 24 h. Shown are relative levels of early apoptotic cells (annexin-positive, 7 aminoactinomycin D-negative). (D) Flow cytometric analysis of DNA of HeLa cell cultures mock-exposed (−) or exposed to the indicated concentrations of compound 115 for 6, 15 and 24 hours. Relative levels of apoptotic cells are indicated.
Further studies were aimed at finding out whether IHSF-exposed cancer cells were only growth-arrested or were actually killed and, if they were killed, by what mechanism. […] The viability signal (in whole cultures and, more dramatically, when only attached cells were analyzed) decreased as a function of IHSF concentration. […] Stained (necrotic) and unstained (live) cells were counted (FIG. 6B). […]

Assay [1] relates to multiple myeloma MM.1S cells. Briefly: Analysis of mechanism of cell death in MM.1S cells. Format: cell-based, human. The conditions noted are these: in contrast to HeLa cells (non-apoptotic mechanism).
The test system of another assay is NCI-H3122. Briefly: Alamar Blue viability assay. Format: cell-based. The conditions noted are these: Homo sapiens, Lung, P53 Wt, 96-hour exposure. How it is done: (§1) Cultures of HeLa cells were exposed for 96 hours to different concentrations of IHSF 001, 058 and 115, and viability was assessed using an Alamar Blue assay. It is noted that this standard assay examines attached cells only. This subject will be discussed in more detail below. […] The relative cytotoxicity of the compounds appears to parallel their respective activities as inhibitors of HSF1 function (inhibition of RLuc expression in Z74 cells). We next examined the viability of different human cancer cell lines subsequent to a 96-hour exposure to compound 115 (Table 3). HSF1 was reported as being required for optimal p21 expression and for p53-mediated cell cycle arrest in response to genotoxins. Logan, I. R. et al. (2009) Nucleic Acids Res. 37: 2962-2971. […] Cell lines of different p53 status were included in the experiments in order to find out whether sensitivity to IHSF 115 was related to p53 status. […] No effect of p53 status could be discovered. It is noted that a number of additional HSF inhibitors of the present disclosure were tested and found to effectively reduce the viability of human cancer cells.

The subject of a further assay is MM.1R. Briefly: Alamar Blue viability assay. In kind it is cell-based. Conditions: Homo sapiens, Multiple myeloma, P53 Wt, 96-hour exposure. On the procedure: as §1
A general note: Resazurin is reduced to fluorescent resorufin, in cell work by metabolically active cells.

A further assay relates to HCC1143. Nature of the assay: Alamar Blue viability assay. In kind it is cell-based. The conditions noted are these: Homo sapiens, Breast, P53 Mut, 96-hour exposure. On the procedure:
as §1

A further assay relates to U266B1. Nature of the assay: Alamar Blue viability assay. In kind it is cell-based. Conditions: Homo sapiens, Multiple myeloma, P53 Mut, 96-hour exposure. On the procedure:
as §1

The next assay deals with NCI-H460. Nature of the assay: Alamar Blue viability assay. Format: cell-based. The conditions noted are these: Homo sapiens, Lung, P53 Wt, 96-hour exposure. How it is done:
as §1

Another assay concerns sNF96.2. Briefly: Alamar Blue viability assay. In kind it is cell-based. The conditions noted are these: Homo sapiens, Malignant peripheral nerve sheath, P53 Wt, 96-hour exposure. On the procedure: as §1
The subject of a further assay is CAMA-1. Briefly: Alamar Blue viability assay. Format: cell-based. Conditions: Homo sapiens, Breast, P53 Mut, 96-hour exposure. How it is done: as §1
For another assay, the system named is SK-OV-3. Nature of the assay: Alamar Blue viability assay. Format: cell-based. Conditions: Homo sapiens, Ovarian carcinoma, P53 Mut, 96-hour exposure. How it is done: as §1
A further assay concerns IM9. Briefly: Alamar Blue viability assay. In kind it is cell-based. Conditions: Homo sapiens, IM-9, Multiple myeloma, P53 Wt, 96-hour exposure. How it is done: as §1
The next assay concerns BT-20. Briefly: Alamar Blue viability assay. In kind it is cell-based. Conditions: Homo sapiens, Breast, P53 Mut, 96-hour exposure. On the procedure: as §1
Another assay deals with MCF-7. Briefly: Alamar Blue viability assay. Format: cell-based. Conditions: Homo sapiens, MCF7, Breast, P53 Wt, 96-hour exposure. How it is done:
as §1

Another assay has as its system PEA1. Briefly: Alamar Blue viability assay. In kind it is cell-based. The conditions noted are these: Homo sapiens, Ovarian carcinoma, P53 Mut, 96-hour exposure. How it is done:
as §1

The subject of the next assay is MDA-MB-231. Nature of the assay: Alamar Blue viability assay. The conditions noted are these: Homo sapiens, Breast, P53 Mut, 96-hour exposure. In kind it is cell-based. How it is done:
as §1

For a further assay, the system named is sNF02.2. Briefly: Alamar Blue viability assay. In kind it is cell-based. Conditions: Homo sapiens, Malignant peripheral nerve sheath, P53 Wt, 96-hour exposure. On the procedure:
as §1

A further assay concerns Saos-2. Nature of the assay: Alamar Blue viability assay. Format: cell-based. The conditions noted are these: Homo sapiens, Osteosarcoma, P53 Null, 96-hour exposure. On the procedure: as §1
The test system of a further assay is MNNG/HOS. Nature of the assay: Alamar Blue viability assay. Conditions: Homo sapiens, Osteosarcoma, P53 Mut, 96-hour exposure. In kind it is cell-based. How it is done:
as §1

The next assay deals with HepG2. Briefly: Alamar Blue viability assay. In kind it is cell-based. The conditions noted are these: Homo sapiens, Hepatocellular, P53 Wt, 96-hour exposure. On the procedure:
as §1

Another assay deals with A673. Briefly: Alamar Blue viability assay. Conditions: Homo sapiens, Ewing’s sarcoma, P53 Mut, 96-hour exposure. In kind it is cell-based. On the procedure:
as §1

In a further assay the test system is U-2 OS. Briefly: Alamar Blue viability assay. Format: cell-based. The conditions noted are these: Homo sapiens, U2OS, Osteosarcoma, P53 WT, 96-hour exposure. How it is done: as §1
For the next assay, the system named is A549. Briefly: Alamar Blue viability assay. Format: cell-based. The conditions noted are these: Homo sapiens, Lung, P53 Wt, 96-hour exposure. How it is done:
as §1

Another assay relates to MG-63. Nature of the assay: Alamar Blue viability assay. The conditions noted are these: Homo sapiens, Osteosarcoma, P53 Mut, 96-hour exposure. Format: cell-based. On the procedure:
as §1

In another assay the test system is THP-1. Nature of the assay: Alamar Blue viability assay. In kind it is cell-based. Conditions: Homo sapiens, Acute monocytic leukemia, P53 Mut, 96-hour exposure. How it is done:
as §1

By pEC50 is commonly meant −log10 of the EC50, conventionally taken in molar units. Read a low pEC50 as a large EC50. On to `CN(C(=O)/C=C/C1=NCCCO1)c1ncc(-c2cccnc2)s1` [IHSF 115, (E)-3-(5,6-Dihydro-4H-[1,3]oxazin-2-yl)-N-methyl-N-(5-pyridin-3-yl-thiazol-2-yl)-acrylamide], for which, in the assay on HeLa cells, the “live cells annexin V-stained” value was “no more than 15%”. The “mechanism of cell death of MM.1S cells” value in [1] is “prominent apoptotic component”. In addition, the pEC50 in the assay with NCI-H3122 was 4.96; in the assay on MM.1R, 5.77; in the assay on HCC1143 it was 5.32; in the assay with U266B1 it was 5.41; in the assay with NCI-H460, 5.03; in the assay on sNF96.2, 5.38. Further, the pEC50 in the assay on CAMA-1 is 5.46; in the assay with SK-OV-3 it was 4.82; with IM9, 5.64; in the assay with BT-20, 5.09; with MCF-7, 5.28; in the assay with PEA1 it was 5.39. The pEC50 in the assay on MDA-MB-231 is 5.66; in the assay with sNF02.2 it was 5.08; in the assay with Saos-2, 5.10; in the assay with MNNG/HOS, 5.04; with HepG2, 5.28; in the assay with A673, 5.72. Also, the pEC50 in the assay on U-2 OS was 5.28; with A549 it was 4.73; with MG-63, 5.34; with THP-1 it was 5.16.
